T1: alpha-factor, P01149
T1 chain: WHWLQLKPGQPMY

B1: BAR1 protease of BAR1 computing units (protein)
chain: LTNDGTGHLEFLLQHEEEMYYATTLDIGTPSQSLTVLFDTGSADFWVMDSSNPFCLPNSNTSSYSNATYNGEEVKPSIDCRSMSTYNEHRSSTYQYLENGRFYITYADGTFADGSWGTETVSINGIDIPNIQFGVAKYATTPVSGVLGIGFPRRESVKGYEGAPNEYYPNFPQILKSEKIIDVVAYSLFLNSPDSGTGSIVFGAIDESKFSGDLFTFPMVNEYPTIVDAPATLAMTIQGLGAQNKSSCEHETFTTTKYPVLLDSGTSLLNAPKVIADKMASFVNASYSEEEGIYILDCPVSVGDVEYNFDFGDLQISVPLSSLILSPETEGSYCGFAVQPTNDSMVLGDVFLSSAYVVFDLDNYKISLAQANWNASEVSKKLVNIQTDGSISGAKIATAEPWSTNEPFTVTSDIYSSTGCKSRPFLQSSTASSLIAETNVQSRNCSTKMPGTRSTTVLSKPTQNSAMHQSTGAVTQTSNETKLELSSTMANSGSVSLPTSNSIDKEFEHSKSQTTSDPSVAEHSTFNQTFVHETKYRPTHKTVITETVTKYSTVLINVCKPTY

Legend:
[1] = tested on: HaCaT (HCT, EpCAM+) cells; assay: Cell-specific apoptosis rate in mixed HaCaT/Jurkat cell cultures (biocytometry readout); assay type: cell-based
Description: The presently described biocytometry was evaluated for measuring cell-specific apoptosis in mixed cell cultures. Despite the growing trend toward studying apoptosis in complex biological systems such as organoids and mixed cell cultures, conventional methods such as Caspase-based assays and MTT tests still yield limited sensitivity and quantify only aggregate apoptosis levels. To assess cell-specific apoptosis, mixed cultures of HaCaT (HCT, EpCAM+) and Jurkat (JUR, EpCAM−) cells at varied ratios (1:0 to 1:8) were utilized. Cells were cultured at a density of 40,000 cells/well in RPMI medium supplemented with 10% FBS and either subjected to 1 mM DTT treatment or left untreated. Following a 2.5-hour incubation at 37° C. in a 5% CO2 atmosphere, both total and apoptotic HaCaT cell counts were established using BIOS(EpCAM) and BIOS (EpCAM+PS), adhering to the biocytometry protocol. A noticeable reduction in total EpCAM+ cell count was evident in induced cell cultures, alongside an increase in the number of apoptotic EpCAM+ cells, aligning with the anticipated apoptotic changes (FIG. 12A). Apoptotic rates were calculated by normalizing BIOS(EpCAM+PS) counts to total cell counts from BIOS(EpCAM). […]

[2] = target: T1, alpha-factor, P01149

Molecule	increase in apoptotic rates among EpCAM+ cells ([1]; 1 mM DTT vs untreated controls)	apoptotic rate among EpCAM+ cells ([1]; 1 mM DTT, 2.5-hour incubation at 37° C., 1.7% baseline in untreated controls)	degradation of alpha-factor; activation threshold of the biosensors [2]
O[C@@H](CS)[C@@H](O)CS [DTT]	7.2 fold	12.2%	–
B1	–	–	effectively degraded alpha-factor, raising the activation threshold of the biosensors

Source: patent US20260227397A1, “METHODS AND SYSTEMS OF PROFILING WITH BIOLOGICAL COMPUTING CELLS” (XENO CELL INNOVATIONS S.R.O., priority 2023, published 2026)
